Data reported in publication PMC5394417, “Investigating the molecular mechanism of positive and negative allosteric modulators in the calcium-sensing receptor dimer” (Scientific Reports, 2017).

Biological target: T1, HA-E297A CaSR mutant (Rattus norvegicus, UniProt P48442, E297A)
T1 construct: mGluR5 signal peptide (N); expressed in transfected cells; host or cells: HEK293T
T1 sequence (P48442 20-1079 E297A): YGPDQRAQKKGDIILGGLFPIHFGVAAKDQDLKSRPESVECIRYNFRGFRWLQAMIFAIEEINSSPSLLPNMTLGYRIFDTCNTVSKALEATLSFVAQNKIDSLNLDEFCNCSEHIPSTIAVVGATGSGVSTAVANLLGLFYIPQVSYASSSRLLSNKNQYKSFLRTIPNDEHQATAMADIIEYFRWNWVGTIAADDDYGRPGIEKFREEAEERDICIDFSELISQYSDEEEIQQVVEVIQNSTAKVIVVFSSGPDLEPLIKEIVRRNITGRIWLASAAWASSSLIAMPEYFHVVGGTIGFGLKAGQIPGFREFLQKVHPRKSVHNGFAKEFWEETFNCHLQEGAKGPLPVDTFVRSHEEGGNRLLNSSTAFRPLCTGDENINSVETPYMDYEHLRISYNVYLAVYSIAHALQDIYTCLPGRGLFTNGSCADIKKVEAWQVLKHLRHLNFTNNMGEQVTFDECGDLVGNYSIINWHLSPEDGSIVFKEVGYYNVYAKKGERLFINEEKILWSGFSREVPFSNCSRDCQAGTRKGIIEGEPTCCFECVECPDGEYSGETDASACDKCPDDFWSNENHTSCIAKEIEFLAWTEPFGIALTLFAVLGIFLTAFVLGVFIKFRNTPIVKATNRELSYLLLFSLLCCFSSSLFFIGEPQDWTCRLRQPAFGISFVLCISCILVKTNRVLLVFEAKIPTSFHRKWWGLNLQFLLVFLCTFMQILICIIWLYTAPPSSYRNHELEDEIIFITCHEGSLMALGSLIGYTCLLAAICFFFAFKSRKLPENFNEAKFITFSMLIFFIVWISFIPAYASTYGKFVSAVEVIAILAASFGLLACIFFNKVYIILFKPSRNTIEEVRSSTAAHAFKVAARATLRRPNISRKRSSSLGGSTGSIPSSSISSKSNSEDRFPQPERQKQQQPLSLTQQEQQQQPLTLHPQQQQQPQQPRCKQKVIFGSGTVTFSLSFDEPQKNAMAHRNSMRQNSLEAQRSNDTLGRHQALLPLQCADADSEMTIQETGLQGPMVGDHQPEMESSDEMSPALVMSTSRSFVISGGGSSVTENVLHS
Assay: IP-One assay, HEK293T transiently transfected
Assay type: cell-based

EC50 (Ca^2+ alone): 7.36 mM | Hill coefficient ± S.E.M. (Ca^2+ alone): 3.01 ± 0.07 | Max ± S.E.M. (normalized to maximum response of WT CaSR): 130 ± 25%
Structure (SMILES): [Ca+2] [Ca^2+]
